Experimental data reported in patent US11083728B2, “Compositions of cyclin dependent kinase 7 (CDK7) inhibitor” (Syros Pharmaceuticals, Inc., priority 2017, dated 2021).
In brackets after ≈: the same amount, converted by molar mass. Read-outs that look alike come from different tables or passages of the source.

Tests used:
Assay type in all cases: physicochemical
[1] = Equilibrium solubility in various pharmaceutical excipients
[2] = Long-term storage stability in co-solvents PEG 300 and PEG 400
[3] = Infusion solution stability in 0.9% Sodium Chloride for Injection; conditions: for Change in concentration: initial vs 4 hours at ambient temperature and light
Procedure: For the infusion solution stability study, duplicate dilutions of the reconstituted Compound 1 in 0.9% Sodium Chloride for Injection, LISP to provide the low (0.01 mg/mL) and high dose (0.6 mg/mL) were prepared. Infusion bags and sets used were made of polyolefin and polyethylene-lined respectively. To bracket the concentrations to be used in the clinic, two concentrations (0.01 mg/mL and 0.6 mg/mL of Compound 1) representing lowest and highest doses were selected. The stability of low and high dose infusion bag dilution is summarized in Table 3 and Table 4, respectively.

[4] = Stability of reconstituted solution of the particulate composition (5 mg/mL)
Procedure: The stability of the reconstituted solution of the particulate composition of Compound 1 of Example 1 was determined up to 4 hours. Duplicate vials of Compound 1 were reconstituted each with 5 mL of Water for Injection, USP.

[5] = infusion solution 0.01 mg/mL, 4 hours
[6] = infusion solution 0.01 mg/mL, Initial
[7] = infusion solution 0.6 mg/mL, 4 hours
[8] = infusion solution 0.6 mg/mL, Initial
[9] = reconstituted solution 5 mg/mL, 4 hours
[10] = reconstituted solution 5 mg/mL, Initial
[11] = reconstituted solution, initial vs 4 hours at room temperature and light

## CN(C)C/C=C/C(=O)Nc1ccc(C(=O)N[C@@]2(C)CCC[C@@H](Nc3ncc(Cl)c(-c4c[nH]c5ccccc45)n3)C2)nc1 [Compound 1, N-((1S,3R)-3-(5-chloro-4-(1H-indol-3-yl)pyrimidin-2-ylamino)-1-methylcyclohexyl)-5-((E)-4-(dimethylamino)but-2-enamido)picolinamide]
[1]; 50 mM Borate pH 10
  solubility: <LOQ
[1]; 50 mM KCl, pH 2, simulated gastric fluid, thermodynamic from solid, 50 mM KCl, pH 2, read-out: Solubility
  solubility: 3600 µg/mL (≈ 6.13 mM)
[1]; 50 mM Phosphate pH 8
  solubility: <LOQ
[1]; 50 mM citrate, pH 4, aqueous buffer, thermodynamic from solid, 50 mM Citrate pH 4, read-out: Solubility
  solubility: 3.7 µg/mL (≈ 0.0063 mM)
[1]; 50 mM phosphate buffer, pH 6, aqueous buffer, thermodynamic from solid, 50 mM Phosphate pH 6, read-out: Solubility
  solubility: 1.9 µg/mL (≈ 0.00324 mM)
[1]; 10% Captisol in phosphate buffer, pH 5.5, aqueous with cosolvent or surfactant or cyclodextrin, thermodynamic from solid, 10% Captisol, pH 5.5 (phosphate buffer), read-out: Solubility
  solubility: 4600 µg/mL (≈ 7.83 mM)
[1]; 20% Captisol in phosphate buffer, pH 5.5, aqueous with cosolvent or surfactant or cyclodextrin, thermodynamic from solid, 20% Captisol, pH 5.5 (phosphate buffer), read-out: Solubility
  solubility: 5900 µg/mL (≈ 10 mM)
[1]; 20% Captisol, 0.1% Tween 80, pH adjusted with HCl, pH 3.5, aqueous with cosolvent or surfactant or cyclodextrin, thermodynamic from solid, 20% Captisol, 0.1% Tween 80, pH 3.5, (HCl), read-out: Solubility
  solubility: > 10000 µg/mL
[1]; Captisol, especially with acidic conditions (pH 3-4) and Tween 80
  Solubility (in words): good solubility
[1]; PEG 300
  solubility: >19400 µg/mL
[1]; PEG 300, organic solvent or mixture, thermodynamic from solid, PEG 300, read-out: Solubility
  solubility: > 19000 µg/mL
[1]; PEG 400
  solubility: >20800 µg/mL
[1]; PEG 400, organic solvent or mixture, thermodynamic from solid, PEG 400, read-out: Solubility
  solubility: > 19000 µg/mL
[1]; Sorensen phosphate Buffer
  solubility: <LOQ
[1]; Tween 80, aqueous with cosolvent or surfactant or cyclodextrin, thermodynamic from solid, Tween 80, read-out: Solubility
  solubility: 18300 µg/mL (≈ 31.2 mM)
[1]; dehydrated alcohol, organic solvent or mixture, thermodynamic from solid, Dehydrated Alcohol, read-out: Solubility
  solubility: 3600 µg/mL (≈ 6.13 mM)
[1]; in water
  Solubility (in words): poorly soluble
[1]; propylene glycol, organic solvent or mixture, thermodynamic from solid, Propylene Glycol, read-out: Solubility
  solubility: 4000 µg/mL (≈ 6.81 mM)
[1]; t-butanol, organic solvent or mixture, thermodynamic from solid, t-Butanol, read-out: Solubility
  solubility: 3200 µg/mL (≈ 5.45 mM)
[1]; water, thermodynamic from solid, Water, read-out: Solubility
  solubility: 0.12 µg/mL (≈ 0.000204 mM)
[2]
  Stability on long-term storage: unstable
[3]; high dose (0.6 mg/mL)
  Change in concentration: no changes
[3]; [5]
  Appearance: Yellowish Clear solution
  Compound 1 concentration: 0.0099 mg/mL
  pH: 8.1
[3]; [6]
  Appearance: Yellowish Clear solution
  Compound 1 concentration: 0.0096 mg/mL
  pH: 7.6
[3]; [7]
  Appearance: Yellowish Clear
  Compound 1 concentration: 0.551 mg/mL
  Impurities, RRT 1.03: RRT 1.03 = 0.71% a/a
  Impurities, RRT 1.22: RRT 1.22 = 0.06% a/a
  Impurities, RRT 1.43: RRT = 1.43 = 0.51% a/a
  Impurities, RRT 1.60: RRT = 1.60 = 0.08% a/a
  Impurities, Total: Total = 1.4% a/a
  pH: 3.6
[3]; [8]
  Appearance: Yellowish Clear
  Compound 1 concentration: 0.552 mg/mL
  Impurities, RRT 1.03: RRT 1.03 = 0.71% a/a
  Impurities, RRT 1.22: RRT 1.22 = 0.06% a/a
  Impurities, RRT 1.43: RRT = 1.43 = 0.51% a/a
  Impurities, RRT 1.60: RRT = 1.60 = 0.08% a/a
  Impurities, Total: Total = 1.4% a/a
  pH: 3.6
[3]; low dose (0.01 mg/mL)
  Change in concentration: no changes
[3]; low dose dilution (0.01 mg/mL), initial vs 4 hours
  Change in pH: increase
[4]; [9]
  Compound 1 concentration: 4.48 mg/mL
  Impurities, RRT 1.04: RRT 1.04 = 0.70% a/a
  Impurities, RRT 1.23: RRT 1.23 = 0.07% a/a
  Impurities, RRT 1.44: RRT 1.44 = 0.59% a/a
  Impurities, RRT 1.47: RRT 1.47 = 0.42% a/a
  Impurities, RRT 1.61: RRT 1.61 = 0.09% a/a
  Impurities, Total: Total = 1.9% a/a
  pH: 3.2
[4]; reconstituted solution 5 mg/mL, 4 hours, room temperature and light
  Appearance: Yellowish Clear solution
[4]; [10]
  Compound 1 concentration: 4.75 mg/mL
  Impurities, RRT 1.04: RRT 1.04 = 0.71% a/a
  Impurities, RRT 1.23: RRT 1.23 = 0.10% a/a
  Impurities, RRT 1.46: RRT 1.46 = 0.55% a/a
  Impurities, RRT 1.48: RRT1.48 = 0.4 % a/a
  Impurities, RRT 1.62: RRT1.62 = 0.0 % a/a
  Impurities, Total: Total = 1.9% a/a
  pH: 3.2
[4]; reconstituted solution 5 mg/mL, Initial, n = 2
  Appearance: Yellowish Clear solution
[4]; [11]
  Change in appearance and pH: unchanged
  Change in concentration of Compound 1: slight decrease
  Change in impurities: no measurable change
